In ChEMBL document CHEMBL1141727, “Isolation and cytotoxic evaluation of marine sponge-derived norterpene peroxides” (J Nat Prod, 1998):

What was measured:
CCRF-CEM = assay: Growth inhibition of human CCRF-CEM cells; format: functional
HL-60(TB) = assay: Growth inhibition of human HL-60(TB) cells; format: functional
K562 = assay: Growth inhibition of human K562 cells; format: functional
MOLT-4 = assay: Growth inhibition of human MOLT4 cells; format: functional
[1] = Growth inhibition of human […] cells; format: functional
SR = assay: Growth inhibition of human SR cells; format: functional
A549 = assay: Growth inhibition of human A549 cells; format: functional
EKVX = assay: Growth inhibition of human EKVX cells; format: functional
HOP-62 = assay: Growth inhibition of human HOP62 cells; format: functional
HOP-92 = assay: Growth inhibition of human HOP92 cells; format: functional
NCI-H23 = assay: Growth inhibition of human NCI-H23 cells; format: functional
NCI-H322M = assay: Growth inhibition of human NCI-H322M cells; format: functional
NCI-H460 = assay: Growth inhibition of human NCI-H460 cells; format: functional
NCI-H522 = assay: Growth inhibition of human NCI-H522 cells; format: functional
COLO 205 = assay: Growth inhibition of human COLO205 cells; format: functional
HCC 2998 = assay: Growth inhibition of human HCC2998 cells; format: functional
HCT-116 = assay: Growth inhibition of human HCT116 cells; format: functional
HCT-15 = assay: Growth inhibition of human HCT15 cells; format: functional
HT-29 = assay: Growth inhibition of human HT-29 cells; format: functional
KM12 = assay: Growth inhibition of human KM12 cells; format: functional
SW-620 = assay: Growth inhibition of human SW620 cells; format: functional
SF-268 = assay: Growth inhibition of human SF268 cells; format: functional
SF-295 = assay: Growth inhibition of human SF295 cells; format: functional
SF-539 = assay: Growth inhibition of human SF539 cells; format: functional
SNB-19 = assay: Growth inhibition of human SNB19 cells; format: functional
SNB-75 = assay: Growth inhibition of human SNB75 cells; format: functional
U-251 = assay: Growth inhibition of human U251 cells; format: functional
LOX IMVI = assay: Growth inhibition of human LOXIMVI cells; format: functional
Malme-3M = assay: Growth inhibition of human MALME-3M cells; format: functional
M14 = assay: Growth inhibition of human M14 cells; format: functional
SK-MEL-2 = assay: Growth inhibition of human SK-MEL-2 cells; format: functional
SK-MEL-28 = assay: Growth inhibition of human SK-MEL-28 cells; format: functional
SK-MEL-5 = assay: Growth inhibition of human SK-MEL-5 cells; format: functional
UACC-257 = assay: Growth inhibition of human UACC257 cells; format: functional
UACC-62 = assay: Growth inhibition of human UACC62 cells; format: functional
IGROV-1 = assay: Growth inhibition of human IGROV1 cells; format: functional
OVCAR-3 = assay: Growth inhibition of human OVCAR-3 cells; format: functional
OVCAR-4 = assay: Growth inhibition of human OVCAR4 cells; format: functional
OVCAR-5 = assay: Growth inhibition of human OVCAR5 cells; format: functional
OVCAR-8 = assay: Growth inhibition of human OVCAR8 cells; format: functional
SK-OV-3 = assay: Growth inhibition of human SKOV3 cells; format: functional
786-0 = assay: Growth inhibition of human 786-0 cells; format: functional
ACHN = assay: Growth inhibition of human ACHN cells; format: functional
CAKI-1 = assay: Growth inhibition of human Caki1 cells; format: functional
RXF 393 = assay: Growth inhibition of human […] cells; format: functional
SN12C = assay: Growth inhibition of human SN12C cells; format: functional
TK-10 = assay: Growth inhibition of human TK10 cells; format: functional
UO-31 = assay: Growth inhibition of human UO31 cells; format: functional
PC-3 = assay: Growth inhibition of human PC3 cells; format: functional
DU-145 = assay: Growth inhibition of human DU145 cells; format: functional
MCF7 = assay: Growth inhibition of human MCF7 cells; format: functional
[2] = Growth inhibition of human MCF7/ADR resistant cells; format: functional; details: NCI/ADR-RES
MDA-MB-231 = assay: Growth inhibition of human MDA-MB-231 cells; format: functional
[3] = Growth inhibition of human Hs 578T cells; format: functional
MDA-MB-435 = assay: Growth inhibition of human MDA-MB-435 cells; format: functional
MDA-N = assay: Growth inhibition of human MDA-N cells; format: functional
BT-549 = assay: Growth inhibition of human BT549 cells; format: functional
T47D = assay: Growth inhibition of human T47D cells; format: functional
L1210 = assay: Growth inhibition of mouse L1210 cells assessed as zone units at 50 ug/disk by disk diffusion agar colony formation assay; format: functional
P388 = assay: Growth inhibition of mouse P388 cells assessed as zone units at 50 ug/disk by disk diffusion agar colony formation assay; format: functional
MC-38 = assay: Growth inhibition of mouse C38 cells assessed as zone units at 50 ug/disk by disk diffusion agar colony formation assay; format: functional
[4] = Growth inhibition of mouse M17/ADR cells assessed as zone units at 50 ug/disk by disk diffusion agar colony formation assay; format: functional
CX-1 = assay: Growth inhibition of human CX-1 cells assessed as zone units at 50 ug/disk by disk diffusion agar colony formation assay; format: functional
Mus musculus = assay: Toxicity in mouse at 424 mg/kg, iv in split dose; format: organism-based; design: dose 424 mg/kg, route intravenous; details: in vivo
NCI-H226 = assay: Growth inhibition of human NCI-H226 cells; format: functional
A498 = assay: Growth inhibition of human A498 cells; format: functional
[5] = Growth inhibition of human H125 cells assessed as zone units at 50 ug/disk by disk diffusion agar colony formation assay; format: functional

## COC(=O)[C@H](C)[C@H]1CC[C@@](C)(CCC2=C(C)CCCC2(C)C)OO1 [NUAPAPUIN A METHYL ESTER]
CCRF-CEM
  GI50: 19.4 µM
HL-60(TB)
  GI50: > 5 µM
K562
  GI50: 14.3 µM
MOLT-4
  GI50: > 5 µM
[1]
  GI50: > 25 µM
SR
  GI50: > 25 µM
A549
  GI50: > 5 µM
EKVX
  GI50: > 25 µM
HOP-62
  GI50: > 25 µM
HOP-92
  GI50: > 25 µM
NCI-H23
  GI50: > 25 µM
NCI-H322M
  GI50: > 25 µM
NCI-H460
  GI50: > 25 µM
NCI-H522
  GI50: > 16.1 µM
COLO 205
  GI50: > 25 µM
HCC 2998
  GI50: > 25 µM
HCT-116
  GI50: > 25 µM
HCT-15
  GI50: > 25 µM
HT-29
  GI50: > 25 µM
KM12
  GI50: > 5 µM
SW-620
  GI50: > 25 µM
SF-268
  GI50: > 25 µM
SF-295
  GI50: > 25 µM
SF-539
  GI50: > 25 µM
SNB-19
  GI50: > 25 µM
SNB-75
  GI50: > 25 µM
U-251
  GI50: > 25 µM
LOX IMVI
  GI50: > 5 µM
Malme-3M
  GI50: > 25 µM
M14
  GI50: > 25 µM
SK-MEL-2
  GI50: > 25 µM
SK-MEL-28
  GI50: > 25 µM
SK-MEL-5
  GI50: > 25 µM
UACC-257
  GI50: > 25 µM
UACC-62
  GI50: > 25 µM
IGROV-1
  GI50: > 5 µM
OVCAR-3
  GI50: > 25 µM
OVCAR-4
  GI50: > 25 µM
OVCAR-5
  GI50: > 25 µM
OVCAR-8
  GI50: > 25 µM
SK-OV-3
  GI50: > 25 µM
786-0
  GI50: > 25 µM
ACHN
  GI50: 25 µM
CAKI-1
  GI50: > 25 µM
RXF 393
  GI50: > 25 µM
SN12C
  GI50: > 25 µM
TK-10
  GI50: > 25 µM
UO-31
  GI50: > 23.7 µM
PC-3
  GI50: > 25 µM
DU-145
  GI50: > 25 µM
MCF7
  GI50: > 25 µM
[2]
  GI50: > 25 µM
MDA-MB-231
  GI50: > 25 µM
[3]
  GI50: > 25 µM
MDA-MB-435
  GI50: > 25 µM
MDA-N
  GI50: > 25 µM
BT-549
  GI50: > 5 µM
T47D
  GI50: > 25 µM
L1210
  Activity: 400 Zone units
P388
  Activity: 400 Zone units
MC-38
  Activity: 700 Zone units
[4]
  Activity: 400 Zone units
CX-1
  Activity: 310 Zone units
Mus musculus
  Activity: Non-toxic

## C=C1CCCC(C)(C)C1CC[C@]1(C)CC[C@H]([C@@H](C)C(=O)OC)OO1 (some centres undefined) [NUAPAPUIN B]
CCRF-CEM
  GI50: 1.27 µM
HL-60(TB)
  GI50: 1.6 µM
K562
  GI50: 6.38 µM
MOLT-4
  GI50: 7.04 µM
[1]
  GI50: 4.04 µM
SR
  GI50: 2.17 µM
A549
  GI50: 0.64 µM
EKVX
  GI50: 7.9 µM
HOP-62
  GI50: 0.71 µM
HOP-92
  GI50: 0.76 µM
NCI-H226
  GI50: 6.17 µM
NCI-H23
  GI50: 3.54 µM
NCI-H322M
  GI50: 6.9 µM
NCI-H460
  GI50: 0.91 µM
NCI-H522
  GI50: 3.05 µM
COLO 205
  GI50: 4.54 µM
HCC 2998
  GI50: 3.68 µM
HCT-116
  GI50: 8.14 µM
HCT-15
  GI50: 13.1 µM
HT-29
  GI50: 0.38 µM
KM12
  GI50: 0.4 µM
SW-620
  GI50: 7.53 µM
SF-268
  GI50: 3.19 µM
SF-295
  GI50: 4.42 µM
SF-539
  GI50: 6.25 µM
SNB-19
  GI50: 5.47 µM
SNB-75
  GI50: 2.67 µM
U-251
  GI50: 2.91 µM
LOX IMVI
  GI50: 0.47 µM
Malme-3M
  GI50: 21 µM
M14
  GI50: 6.43 µM
SK-MEL-2
  GI50: 8.28 µM
SK-MEL-28
  GI50: 20.6 µM
SK-MEL-5
  GI50: 3.94 µM
UACC-257
  GI50: 16.3 µM
UACC-62
  GI50: 4.13 µM
IGROV-1
  GI50: 0.5 µM
OVCAR-3
  GI50: 21.8 µM
OVCAR-4
  GI50: 4.01 µM
OVCAR-5
  GI50: 4.76 µM
OVCAR-8
  GI50: 5.76 µM
SK-OV-3
  GI50: 4.4 µM
786-0
  GI50: 0.27 µM
A498
  GI50: 4.92 µM
ACHN
  GI50: 0.48 µM
CAKI-1
  GI50: 0.32 µM
RXF 393
  GI50: 2.62 µM
SN12C
  GI50: 3.73 µM
TK-10
  GI50: 4.21 µM
UO-31
  GI50: 0.52 µM
PC-3
  GI50: 3.63 µM
DU-145
  GI50: 3.67 µM
MCF7
  GI50: 18.4 µM
[2]
  GI50: 5.67 µM
MDA-MB-231
  GI50: 757 µM
[3]
  GI50: 4.6 µM
MDA-MB-435
  GI50: 4.34 µM
MDA-N
  GI50: 3.54 µM
BT-549
  GI50: 4.95 µM
T47D
  GI50: 2.94 µM
L1210
  Activity: 180 Zone units
P388
  Activity: 180 Zone units
MC-38
  Activity: 300 Zone units
[4]
  Activity: 100 Zone units
[5]
  Activity: 200 Zone units
